Laboratory results taken from patent US20250304973A1, “HIGH-AFFINITY THROMBIN APTAMERS AND METHODS OF USE” (Ayass Bioscience LLC, priority 2024, published 2025).
{CholTEG} = cholesterol attached through a triethylene glycol linker; {Sp18} = hexaethylene glycol (Sp18, PEG) spacer; {Sp9} = triethylene glycol (Sp9, TEG) spacer

Assays:
[1] = system: human citrated plasma; test: Activated partial thromboplastin time (APTT) assay in human citrated plasma; format: biochemical; conditions: for increase in APTT time: 2 uM, 2 h, versus untreated control; for impact of modified aptamer on APTT: 2 uM modified aptamer, 1 hour room temperature plus 2-hour incubation, versus unmodified aptamer
Procedure: (§1) 137. Sterile human blood in sodium citrate was purchased from the Rockland Immuno- chemicals, Inc (cat #R214-0050, Pottstown, PA 19464, USA). Plasma was prepared by centrifugation for 10 min at 2000×g. In vitro activity assays were performed on ACLTOP analyzer manufactured by Instrumentation Laboratory, which is a type of coagulation analyzer commonly used in clinical laboratories to measure clotting times and assess coagulation parameters. The ACLTOP analyzer is designed to perform a wide range of coagulation tests, including Factor II activity, prothrombin time (PT), activated partial thromboplastin time (APTT), fibrinogen, and other related assays. ACLTOP analyzer uses HemosIL reagents developed by Instrumentation Laboratory company (Bedford, MA, USA) to perform coagulation tests.
140. […] APTT time was measured using the synthetic phospholipid reagent SynthASIil for quantitative determination in human citrated plasma on an ACLTOP coagulation analyzer manufactured by Instrumentation Laboratory (Bed- ford, MA, USA).
(§2) 146. Modified aptamers chemically crosslinked with TAG, PEG, and cholesterol entities at the 3′ end, were purchased from IDT (Integrated DNA Technologies, Coralville, IA, USA). The impact of modified AYA1809002 and AYA1809004 aptamers on Factor II activity, PT, and APTT was evaluated using the same protocol as was used for the unmodified aptamers. Additionally, the potential for reversal was investigated using the respective reverse complement for each aptamer.

[2] = target: T1, human alpha-thrombin protein (Homo sapiens, UniProt P00734); test: ELISA-based binding assay of biotinylated thrombin aptamers to thrombin protein; conditions: top nine enriched aptamers, biotinylated; FIG. 2A
T1 construct: Native human alpha-thrombin protein; purchased ThermoFisher Scientific RP-43100; host or cells: native protein
Procedure: 135. Native human alpha-thrombin protein (ThermoFisher Scientific, cat #RP-43100, Waltham, MA, USA) was added to each well of a 96-well plate (Nunc MaxiSorp flat-bottom 96-well plates, ThermoFisher Scientific, cat #44-2404-21, Waltham, MA, USA) at a concentration of 250 nM in Tris-buffered saline with a volume of 100 μL per well. The plate was then incubated at 4° C. for 16 h to allow the wells to become coated with thrombin. After removing the thrombin solution, the wells were washed and blocked using blocking buffer (20 mM Tris, 150 mM NaCl pH 7.5, 2% BSA, 0.1% Tween 20 and 100 μg/mL of sheared salmon sperm DNA) for a 1 h duration. Next, biotinylated aptamers at the indicated concentrations in a volume of 100 μL were added to the wells in an incubation buffer (20 mM Tris, 150 mM NaCl pH 7.5, 0.1% BSA, 0.1% Tween 20 and 100 μg/mL of sheared salmon sperm DNA) and incubated for 1 h at room temperature. In the competition binding assay, unlabeled aptamers were added along with the biotinylated aptamers, with the unlabeled aptamers being present in a 100-fold excess compared to the biotinylated aptamers. Following three washing steps with wash buffer (20 mM Tris, 150 mM NaCl pH 7.5, 0.1% BSA and 0.1% Tween 20), streptavidin-HRP (ThermoFisher Scientific, cat #21130, Waltham, MA, USA) was added at a dilution of 1:5000 in the incubation buffer. The plate was washed again three times to remove any unbound reagents. The bound biotinylated aptamers were then detected using 3,3′,5,5′-Tetramethylbenzidine (TMB) substrate (ThermoFisher Scientific, cat #34021, Waltham, MA, USA) following the manufacturer's instructions.

[3] = target: T2, Factor II activity (Homo sapiens, UniProt P00734); test: Factor II activity assay in human citrated plasma (ACLTOP analyzer); format: biochemical; conditions: for reduction in Factor II activity: 2 uM, 2 h, normalized against untreated control; for impact of modified aptamer on Factor II activity: 2 uM modified aptamer, 1 hour room temperature plus 2-hour incubation, versus unmodified aptamer
T2 construct: tissue Rockland Immunochemicals, Inc R214-0050; host or cells: human citrated plasma / whole blood
Procedure: as §1, with “Plasma” for “137. Sterile human blood in sodium citrate was purchased from the Rockland Immuno- chemicals, Inc (cat #R214-0050, Pottstown, PA 19464, USA). Plasma”
Factor II activity was measured using human plasma immunodepleted of Factor II for the quantitative determination of Factor II activity in citrated plasma based on the prothrombin time (PT) assay, for which an ACLTOP coagulation analyzer manufactured by Instrumentation Laboratory (Bedford, MA, USA) was used. To evaluate the dose-dependent activity of the aptamers in whole blood, human blood samples were collected in citrate-treated tubes. Subsequently, the blood samples were incubated at room temperature for 2 h in both the absence and presence of various concentrations of thrombin aptamers. To measure the Factor II activity using the ACLTOP coagulation analyzer, plasma was separated from the cells by centrifugation at 1500×g for 10 min at 4° C. For the dose-dependent study, concentrations of 1 uM, 2 uM, 3 uM, and 4 uM of AYA1809002 and AYA1809004 were utilized.
as §2, with “Modified” for “146. Modified”

[4] = system: human citrated plasma; test: Prothrombin time (PT) assay in human citrated plasma; format: biochemical; conditions: for increase in PT time: 2 uM, 2 h, versus untreated control; for impact of modified aptamer on PT: 2 uM modified aptamer, 1 hour room temperature plus 2-hour incubation, versus unmodified aptamer
Procedure: as §1, with “Plasma” for “137. Sterile human blood in sodium citrate was purchased from the Rockland Immuno- chemicals, Inc (cat #R214-0050, Pottstown, PA 19464, USA). Plasma”
PT time was measured using RecombiPlasTin 2G for quantitative determination in human citrated plasma of PT and Fibrinogen on an ACLTOP coagulation analyzer manufactured by Instrumentation Laboratory (Bedford, MA, USA). To assess the activity of the aptamers in a dose-dependent manner in whole blood, human blood samples were collected in citrate-treated tubes. The blood samples were then incubated at room temperature for 2 h in the absence or presence of varying concentrations of the thrombin aptamers. To measure the Prothrombin Time (PT) on the ACLTOP coagulation analyzer, plasma was obtained by centrifuging the samples at 1500×g for 10 min at 4° C. For the dose dependence study, concentrations of 1 uM, 2 uM, 3 uM, and 4 uM of AYA1809002 and AYA1809004 were utilized.
as §2, with “Modified” for “146. Modified”

[5] = system: clot-bound thrombin; conditions: in vivo studies, literature; cited from earlier work
[6] = system: rat whole blood; test: Factor II activity, PT, APPT and TT in rat whole blood; format: biochemical
[7] = Table 3, existing solution; cited from earlier work
[8] = target: thrombin over other serine proteases (Homo sapiens, UniProt P00734); conditions: Table 3, existing solution; cited from earlier work
[9] = Table 3, existing solution; cited from earlier work; remark: listed apart in the source
[10] = requires refrigeration; cited from earlier work
[11] = in clinical trials; cited from earlier work
[12] = system: AYA1809002; test: Restoration of Factor II activity and PT time with reverse complement in whole blood; format: biochemical, human; conditions: 1 uM AYA1809002 2 h room temperature in whole blood, then reverse complement; even at 1:1 ratio
Procedure: 144. Citrated blood collected from a donor was incubated in the absence or presence of 1 uM AYA1809002 at room temperature. After 2 h incubation, the indicated concentration of the reverse complement strand was added to the citrated blood sample. After an additional incubation time of 2 h, plasma was obtained through centrifugation. Factor II activity was measured using human plasma immunodepleted of Factor II for the quantitative determination of Factor II activity in citrated plasma based on the prothrombin time (PT) assay, for which an ACLTOP coagulation analyzer manufactured by Instrumentation Laboratory (Bedford, MA, USA) was used. The PT time was measured using RecombiPlasTin 2G for quantitative determination in human citrated plasma of PT and Fibrinogen on an ACLTOP coagulation analyzer manufactured by Instrumentation Laboratory (Bedford, MA, USA).

[13] = system: modified AYA1809002 and AYA1809004 aptamers; test: Reversal potential of reverse complement on modified aptamers in human citrated plasma; format: biochemical; conditions: 5 μM reverse complement strand, additional 2-hour incubation
Procedure: as §2

Substance: AYA1809007: ssDNA thrombin aptamer AGGGGCTCTAGGGTGGGTAGGATGGTGAGACCGCAGCGT (DNA, backbone and methylation of C not given here; further chemistry not fully specified)
- increase in APTT time [1]: three-fold increase
- binding to immobilized human thrombin (absorbance at 450 nm) [2]: strong binding capabilities
- reduction in Factor II activity [3]: more than 75%
- increase in PT time [4]: two-fold increases

Substance: HD1: first anti-thrombin DNA aptamer, 15-mer 5′-GGTTGGTGTGGTTGG-3′ binding exosite I (DNA, backbone not given here)
- inhibition of clot-bound thrombin [5]: > 80%

Substance: PEG-modified AYA1809002: AYA1809002 sequence with /3Sp18/ at the 3′ end (DNA GCGGTGTTGCTGGGGTTGGGAGGTTGGAGGAAGCAATCGC; DNA, 3' {Sp18}, backbone and methylation of C not given here)
- APPT in rat whole blood ([6]; dose-dependent manner): extend
- Factor II activity in rat whole blood ([6]; dose-dependent manner): inhibit
- PT in rat whole blood ([6]; dose-dependent manner): extend
- TT in rat whole blood ([6]; dose-dependent manner): extend

Substance: PEG-modified AYA1809004: AYA1809004 sequence with /3Sp18/ at the 3′ end (DNA TCGTCAAGGTACGGTTGGGGGGGTGGGTGTTGACGTTGAA; DNA, 3' {Sp18}, backbone and methylation of C not given here)
- impact of modified aptamer on APTT [1]: slight increase
- impact of modified aptamer on Factor II activity [3]: noticeable inhibition
- impact of modified aptamer on PT [4]: slight increase

Substance: TEG-modified AYA1809004: AYA1809004 sequence with /3Sp9/ at the 3′ end (DNA TCGTCAAGGTACGGTTGGGGGGGTGGGTGTTGACGTTGAA; DNA, 3' {Sp9}, backbone and methylation of C not given here)
- impact of modified aptamer on APTT [1]: slight increase
- impact of modified aptamer on Factor II activity [3]: noticeable inhibition
- impact of modified aptamer on PT [4]: slight increase

Substance: cholesterol-modified AYA1809004: AYA1809004 sequence with /3CholTEG/ at the 3′ end; Table 2 misprints the name (DNA TCGTCAAGGTACGGTTGGGGGGGTGGGTGTTGACGTTGAA; DNA, 3' {CholTEG}, backbone and methylation of C not given here)
- impact of modified aptamer on APTT [1]: no significant impact
- impact of modified aptamer on Factor II activity [3]: no significant impact
- impact of modified aptamer on PT [4]: no significant impact

Substance: dabigatran
- Onset of Action: peak effect [7]: Peak effect 2-3 hours
- selectivity [8]: ~300-fold selectivity
- Half-life [9]: Half-life of 12-17 hours
- Renal Clearance [9]: ~80%
- increase in APTT time [1]: three-fold increase
- shelf life [10]: shelf life 36 months
- life-threatening bleeding risks [11]: bleeding risks (′ 3.3%
- reduction in Factor II activity [3]: 80%
- increase in PT time [4]: two-fold increases

Substance: heparin
- inhibition of clot-bound thrombin [5]: 35%

Substance: reverse complement of AYA1809002: aptamer antidote GCGATTGCTTCCTCCAACCTCCCAACCCCAGCAACACCGC (DNA, backbone and methylation of C not given here)
- restoration of Factor II activity by reverse complement [12]: effectively restored
- restoration of PT time by reverse complement [12]: effectively restored
- neutralization of aptamer effects in rat whole blood ([6]; reverse complement strand): neutralized the observed effects
- reversal of modified aptamers' effects on Factor II activity, PT and APTT [13]: effectively reverses the observed effects

Substance: reverse complement of AYA1809004: aptamer antidote TTCAACGTCAACACCCACCCCCCCAACCGTACCTTGACGA (DNA, backbone and methylation of C not given here)
- reversal of modified aptamers' effects on Factor II activity, PT and APTT [13]: effectively restored
